Data published in US20050143927A1, “Method for estimating or predicting the anti-tumor activity of a compound and for estimating or predicting the tumor growth in mammals” (Pharmacia Italia S.p.A., priority 2002, published 2005).

Legend:
[1] = tested on: H207 (ovarian human carcinoma); test: Tumor growth model for treated subjects, H207 inoculated subcutaneously in athymic nude mice (Experiment-C); assay type: in vivo; conditions: average growth curve
Experimental: The cell line H207 (ovarian human carcinoma) was inoculated subcutaneously on the back of 70 female athymic nude mice, initially weighing 17.0-25.0 g. […] Cage G2: 7 mice, treated with 3 iv-bolus of Drug-C, repeated every 7 days (therapeutic regimen q7d×3), at a dosing of 0.39 mg/kg. • III. Cage G3: 7 mice, treated with iv-bolus of Drug-C at the therapeutic regimen q7d×3, at a dosing of 0.52 mg/kg. • IV. […] Cage G6: 7 mice, treated with iv-bolus of Drug-C at the therapeutic regimen q4d×3, at a dosing of 0.39 mg/kg. • VII. Cage G8: 7 mice, treated with iv-bolus of Drug-C at the therapeutic regimen q4d×3, at a dosing of 0.52 mg/kg. • VIII. Cage G9: 7 mice, treated with 10 iv-bolus of Drug-C, subdivided in 2 cycles of treatment of 5 daily iv-bolus followed by 2 days of rest (therapeutic regimen qd×5×2 wks), at the dosing of 0.117 mg/kg each. • IX. Cage G10: 7 mice treated at the same treatment and therapeutic regimen of G4, but with the drug coming from a different batch of production.
In this case, despite the silent interval finished in correspondence of the tenth day (where the first measurement of the tumor mass was carried out), the chemotherapeutic treatment started in correspondence of the eleventh day.
The dimensions of the tumor can be taken applying different types of measurements broadly classifiable as measurements of linear dimensions, of volume (or mass) and cell number. For tumors that maintain more or less a spherical morphology, as in the case of solid tumors, the measurement of the three principal diameters results the most adequate, as well as the most practiced solution. Nevertheless, in the case of subcutaneous tumors, the tumor can be considered of spherical shape only during the initial phase of growth; in the following phases, the dimension perpendicular to the skin is generally much smaller than the percutaneous dimensions, conferring to the mass a plaque-like shape or an hemi-ellipsoidal shape. In the experiments taken into consideration, only the dimensions of the two percutaneous diameters were directly measured with vernier calipers. The third dimension was not directly measured, because of the limited accessibility (which would have required a greater invasiveness), in the assumption that two measures were anyhow sufficient to guarantee a good approximation of the tumor mass (K. Rygaard and M. Spang-Thomsen, “Quantitation and Gompertzian analysis of tumor growth”. Breast Cancer Research and Treatment, 46: 303-312,1997).
The volume of a tumor can be indirectly calculated by applying the following empirical formula: [formula] where DMIN and DMAX denote, respectively, the smallest and the largest percutaneous diameter. Such empirical formula hypothesizes that the neoplasia has an ellipsoidal shape (D. A. Cameron, W. M. Gregory, A. Bowman, E. D. C. Anderson, P. Levack, P. Forouhi and R. F. C. Leonard, “Identification of long-term survivors in primary breast cancer by dynamic modeling of tumour response”. British Journal of Cancer, 83(1): 98-103, 2000, Hammond, L. A.; Hilsenbeck, S. G.; Eckhardt, S. G.; Marty, J; Mangold, G.; MacDonald, G. R.; Rowinsky, E. K.; Von Hoff, D. D; Weitman S. Enhanced antitumour activity of 6-hydroxymethylacylfulvene in combination with topotecan or paclitaxel in the MV522 lung carcinoma xenograft model. European Journal of Cancer 2000, 36, 2430-2436) obtained by the rotation of a hemi-ellipsoid (with DMIN and DMAX as axes of the percutaneous plane) around its largest axe. Assuming δ as a constant density equal to δ=10^−3g/mm^3, the empirical expression for the mass of the neoplasia results to be: [formula] The Measurement Error Model

[2] = three-compartment PK model; known average value; cited from earlier work
[3] = tested on: H207 (ovarian human carcinoma); test: Tumor growth model for treated subjects, H207 inoculated subcutaneously in athymic nude mice (Experiment-C); assay type: in vivo; conditions: average growth curve; remark: listed apart in the source
[4] = cage G2, 0.39 mg/kg iv-bolus q7dx3
[5] = cage G3, 0.52 mg/kg iv-bolus q7dx3
[6] = cage G4, 0.78 mg/kg iv-bolus q7dx3
[7] = cage G5, 0.26 mg/kg iv-bolus q4dx3
[8] = cage G6, 0.39 mg/kg iv-bolus q4dx3
[9] = cage G7, 0.52 mg/kg iv-bolus q4dx3
[10] = cage G8, 0.117 mg/kg iv-bolus qdx5x2wks
[11] = cage G9, 0.156 mg/kg iv-bolus qdx5x2wks
[12] = cage G10, 0.78 mg/kg iv-bolus q7dx3, drug from a different batch

Compound: C=C(Br)C(=O)Nc1cc(C(=O)Nc2cc(C(=O)Nc3cc(C(=O)Nc4cc(C(=O)NCCNC(=N)N)n(C)c4)n(C)c3)n(C)c2)n(C)c1 [Drug-C, brostallicin]
- K1 (index of the tumor cells death rate) [1, 4]: 0.289 day⁻¹
- K2 (index of the potency of the compound) [1, 4]: 0.1731 mL/g/day
- λ0 (production rate of tumor cells, exponential phase) [1, 4]: 0.2886
- λ1 (tumor cells mass produced in the time unit, linear phase) [1, 4]: 0.5183
- K1 (index of the tumor cells death rate) [1, 5]: 0.2574 day⁻¹
- K2 (index of the potency of the compound) [1, 5]: 0.1519 mL/g/day
- λ0 (production rate of tumor cells, exponential phase) [1, 5]: 0.2757
- λ1 (tumor cells mass produced in the time unit, linear phase) [1, 5]: 0.6241
- K1 (index of the tumor cells death rate) [1, 6]: 0.2558 day⁻¹
- K2 (index of the potency of the compound) [1, 6]: 0.1085 mL/g/day
- λ0 (production rate of tumor cells, exponential phase) [1, 6]: 0.2297
- λ1 (tumor cells mass produced in the time unit, linear phase) [1, 6]: 0.3193
- K1 (index of the tumor cells death rate) [1, 7]: 0.2979 day⁻¹
- K2 (index of the potency of the compound) [1, 7]: 0.2044 mL/g/day
- λ0 (production rate of tumor cells, exponential phase) [1, 7]: 0.2728
- λ1 (tumor cells mass produced in the time unit, linear phase) [1, 7]: 0.602
- K1 (index of the tumor cells death rate) [1, 8]: 0.3486 day⁻¹
- K2 (index of the potency of the compound) [1, 8]: 0.1698 mL/g/day
- λ0 (production rate of tumor cells, exponential phase) [1, 8]: 0.2554
- λ1 (tumor cells mass produced in the time unit, linear phase) [1, 8]: 0.2736
- K1 (index of the tumor cells death rate) [1, 9]: 0.2488 day⁻¹
- K2 (index of the potency of the compound) [1, 9]: 0.12 mL/g/day
- λ0 (production rate of tumor cells, exponential phase) [1, 9]: 0.1966
- λ1 (tumor cells mass produced in the time unit, linear phase) [1, 9]: 0.279
- K1 (index of the tumor cells death rate) [1, 10]: 0.3766 day⁻¹
- K2 (index of the potency of the compound) [1, 11]: 0.2829 mL/g/day
- λ0 (production rate of tumor cells, exponential phase) [1, 11]: 0.2942
- λ1 (tumor cells mass produced in the time unit, linear phase) [1, 11]: 0.1931
- K1 (index of the tumor cells death rate) [1, 12]: 0.3789 day⁻¹
- K2 (index of the potency of the compound) [1, 12]: 0.1558 mL/g/day
- λ0 (production rate of tumor cells, exponential phase) [1, 12]: 0.2969
- λ1 (tumor cells mass produced in the time unit, linear phase) [1, 12]: 0.2177
- K10 [2]: 134.7 day⁻¹
- K12 [2]: 42.33 day⁻¹
- K13 [2]: 13.28 day⁻¹
- K21 [2]: 48.7 day⁻¹
- K31 [2]: 5.898 day⁻¹
- Vd [2]: 0.1811 L/kg
- K2 (index of the potency of the compound) [3, 10]: 0.2081 mL/g/day
- λ0 (production rate of tumor cells, exponential phase) [3, 10]: 0.2611
- λ1 (tumor cells mass produced in the time unit, linear phase) [3, 10]: 0.581
- K1 (index of the tumor cells death rate) [3, 11]: 0.4152 day⁻¹
